Like-named read-outs stand apart in the source and are kept apart here.
Experiments:
Assay type in all cases: biochemical
[1] = molecular target: RSV polymerase QUAD mutant (Human respiratory syncytial virus A, UniProt P28887, A789V/I796V/L795I/M628L); experiment: Single nucleotide incorporation by recombinant RSV L-P polymerase, QUAD mutant
[2] = molecular target: RSV RNP complex (Human respiratory syncytial virus A, UniProt P28887); experiment: biochemical; settings: for inhibition of RSV RNP complex (in words): Fig 5B; for IC50: first symbol of RSV / HCV, read-out: RSV polymerase inhibition class (IC50, RSV RNP complex)
Sequence of RSV RNP complex (P03421 whole entry): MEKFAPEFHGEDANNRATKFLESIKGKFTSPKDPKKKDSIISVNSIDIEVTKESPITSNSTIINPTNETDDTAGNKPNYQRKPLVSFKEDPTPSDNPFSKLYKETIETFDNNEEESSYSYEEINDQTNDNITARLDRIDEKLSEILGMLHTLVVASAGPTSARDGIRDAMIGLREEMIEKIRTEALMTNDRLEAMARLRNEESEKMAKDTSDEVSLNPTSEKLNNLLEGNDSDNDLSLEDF
Sequence of RSV RNP complex (P28887 whole entry): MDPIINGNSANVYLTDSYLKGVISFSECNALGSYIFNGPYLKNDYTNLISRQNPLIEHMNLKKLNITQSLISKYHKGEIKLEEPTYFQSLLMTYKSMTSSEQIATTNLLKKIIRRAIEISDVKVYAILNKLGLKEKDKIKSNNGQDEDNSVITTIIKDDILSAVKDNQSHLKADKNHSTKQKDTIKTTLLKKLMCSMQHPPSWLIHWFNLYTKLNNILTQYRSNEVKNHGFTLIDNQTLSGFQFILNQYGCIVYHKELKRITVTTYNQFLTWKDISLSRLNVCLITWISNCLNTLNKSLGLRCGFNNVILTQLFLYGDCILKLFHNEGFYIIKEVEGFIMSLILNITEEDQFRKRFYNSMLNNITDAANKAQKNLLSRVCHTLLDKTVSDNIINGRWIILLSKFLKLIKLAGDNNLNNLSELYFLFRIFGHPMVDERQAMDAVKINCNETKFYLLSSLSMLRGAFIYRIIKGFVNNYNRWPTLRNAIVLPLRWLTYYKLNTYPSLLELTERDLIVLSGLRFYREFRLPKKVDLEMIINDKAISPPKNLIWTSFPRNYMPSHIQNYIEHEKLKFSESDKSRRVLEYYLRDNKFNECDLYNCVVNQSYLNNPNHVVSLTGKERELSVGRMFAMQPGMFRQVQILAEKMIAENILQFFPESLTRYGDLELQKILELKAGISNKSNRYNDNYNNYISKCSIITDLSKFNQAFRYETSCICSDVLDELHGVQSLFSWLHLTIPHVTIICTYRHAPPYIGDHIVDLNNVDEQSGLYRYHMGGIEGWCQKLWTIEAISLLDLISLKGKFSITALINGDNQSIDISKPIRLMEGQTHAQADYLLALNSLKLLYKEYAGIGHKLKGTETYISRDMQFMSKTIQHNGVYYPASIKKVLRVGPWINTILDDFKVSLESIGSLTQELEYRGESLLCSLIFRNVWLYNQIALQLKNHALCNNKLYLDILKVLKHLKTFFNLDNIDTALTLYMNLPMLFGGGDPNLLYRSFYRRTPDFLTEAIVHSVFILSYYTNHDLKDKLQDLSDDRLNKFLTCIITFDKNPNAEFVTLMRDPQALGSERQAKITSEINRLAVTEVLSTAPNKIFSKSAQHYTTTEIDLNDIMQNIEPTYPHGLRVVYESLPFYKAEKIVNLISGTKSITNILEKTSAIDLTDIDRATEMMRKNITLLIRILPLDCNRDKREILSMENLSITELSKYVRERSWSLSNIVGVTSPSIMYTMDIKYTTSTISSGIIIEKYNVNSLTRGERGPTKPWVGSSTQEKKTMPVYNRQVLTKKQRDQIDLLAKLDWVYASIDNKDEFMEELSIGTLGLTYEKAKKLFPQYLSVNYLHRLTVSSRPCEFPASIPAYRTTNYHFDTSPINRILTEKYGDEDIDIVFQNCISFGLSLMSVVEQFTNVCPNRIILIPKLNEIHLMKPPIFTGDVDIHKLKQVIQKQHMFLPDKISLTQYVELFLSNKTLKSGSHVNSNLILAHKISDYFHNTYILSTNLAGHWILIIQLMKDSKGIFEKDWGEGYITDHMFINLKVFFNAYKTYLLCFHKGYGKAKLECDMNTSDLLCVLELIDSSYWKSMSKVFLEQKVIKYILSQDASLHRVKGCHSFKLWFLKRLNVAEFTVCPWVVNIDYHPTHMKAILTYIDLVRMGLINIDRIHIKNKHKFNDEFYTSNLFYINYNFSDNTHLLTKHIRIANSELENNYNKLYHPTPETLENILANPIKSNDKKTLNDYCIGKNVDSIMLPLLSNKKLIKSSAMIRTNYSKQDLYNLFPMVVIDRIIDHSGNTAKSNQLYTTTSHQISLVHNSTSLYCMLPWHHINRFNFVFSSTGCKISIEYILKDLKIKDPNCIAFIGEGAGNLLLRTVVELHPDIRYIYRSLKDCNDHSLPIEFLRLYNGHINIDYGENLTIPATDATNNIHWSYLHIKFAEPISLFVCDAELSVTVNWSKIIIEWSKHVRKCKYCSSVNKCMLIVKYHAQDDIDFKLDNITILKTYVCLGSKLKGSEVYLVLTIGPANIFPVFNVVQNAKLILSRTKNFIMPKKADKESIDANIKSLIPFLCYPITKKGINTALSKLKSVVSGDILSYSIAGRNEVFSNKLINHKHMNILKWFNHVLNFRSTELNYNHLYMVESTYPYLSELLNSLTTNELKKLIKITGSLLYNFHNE

[3] = molecular target: T1, wild-type RSV L-P RNA polymerase complex (Human respiratory syncytial virus A, UniProt P28887)
T1 construct: made in house; host or cells: insect cells

[4] = molecular target: HCV polymerase (Hepatitis C virus genotype 1b, UniProt Q9WMX2); experiment: HCV polymerase inhibition assay; settings: for IC50: second symbol of RSV / HCV, read-out: HCV polymerase inhibition class (IC50)
Sequence of HCV polymerase (Q9WMX2 2420-3010): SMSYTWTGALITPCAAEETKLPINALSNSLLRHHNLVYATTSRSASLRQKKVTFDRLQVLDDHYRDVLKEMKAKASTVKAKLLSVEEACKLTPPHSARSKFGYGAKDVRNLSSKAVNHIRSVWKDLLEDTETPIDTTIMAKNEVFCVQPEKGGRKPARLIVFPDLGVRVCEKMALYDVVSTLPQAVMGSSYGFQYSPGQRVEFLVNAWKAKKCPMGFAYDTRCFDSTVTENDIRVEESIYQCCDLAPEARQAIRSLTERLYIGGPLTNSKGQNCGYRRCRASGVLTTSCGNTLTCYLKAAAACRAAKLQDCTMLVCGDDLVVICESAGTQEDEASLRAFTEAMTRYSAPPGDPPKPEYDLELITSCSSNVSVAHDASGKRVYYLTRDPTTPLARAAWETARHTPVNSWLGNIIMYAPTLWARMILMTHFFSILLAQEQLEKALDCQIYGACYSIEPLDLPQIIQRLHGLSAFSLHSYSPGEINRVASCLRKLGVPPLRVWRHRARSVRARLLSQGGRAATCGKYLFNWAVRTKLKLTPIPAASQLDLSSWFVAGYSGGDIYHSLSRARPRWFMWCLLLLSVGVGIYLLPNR

[5] = molecular target: human mitochondrial RNA polymerase (Homo sapiens, UniProt O00411); experiment: DdRp assay with human mitochondrial RNA polymerase, single turnover
Sequence of human mitochondrial RNA polymerase (O00411 42-1230): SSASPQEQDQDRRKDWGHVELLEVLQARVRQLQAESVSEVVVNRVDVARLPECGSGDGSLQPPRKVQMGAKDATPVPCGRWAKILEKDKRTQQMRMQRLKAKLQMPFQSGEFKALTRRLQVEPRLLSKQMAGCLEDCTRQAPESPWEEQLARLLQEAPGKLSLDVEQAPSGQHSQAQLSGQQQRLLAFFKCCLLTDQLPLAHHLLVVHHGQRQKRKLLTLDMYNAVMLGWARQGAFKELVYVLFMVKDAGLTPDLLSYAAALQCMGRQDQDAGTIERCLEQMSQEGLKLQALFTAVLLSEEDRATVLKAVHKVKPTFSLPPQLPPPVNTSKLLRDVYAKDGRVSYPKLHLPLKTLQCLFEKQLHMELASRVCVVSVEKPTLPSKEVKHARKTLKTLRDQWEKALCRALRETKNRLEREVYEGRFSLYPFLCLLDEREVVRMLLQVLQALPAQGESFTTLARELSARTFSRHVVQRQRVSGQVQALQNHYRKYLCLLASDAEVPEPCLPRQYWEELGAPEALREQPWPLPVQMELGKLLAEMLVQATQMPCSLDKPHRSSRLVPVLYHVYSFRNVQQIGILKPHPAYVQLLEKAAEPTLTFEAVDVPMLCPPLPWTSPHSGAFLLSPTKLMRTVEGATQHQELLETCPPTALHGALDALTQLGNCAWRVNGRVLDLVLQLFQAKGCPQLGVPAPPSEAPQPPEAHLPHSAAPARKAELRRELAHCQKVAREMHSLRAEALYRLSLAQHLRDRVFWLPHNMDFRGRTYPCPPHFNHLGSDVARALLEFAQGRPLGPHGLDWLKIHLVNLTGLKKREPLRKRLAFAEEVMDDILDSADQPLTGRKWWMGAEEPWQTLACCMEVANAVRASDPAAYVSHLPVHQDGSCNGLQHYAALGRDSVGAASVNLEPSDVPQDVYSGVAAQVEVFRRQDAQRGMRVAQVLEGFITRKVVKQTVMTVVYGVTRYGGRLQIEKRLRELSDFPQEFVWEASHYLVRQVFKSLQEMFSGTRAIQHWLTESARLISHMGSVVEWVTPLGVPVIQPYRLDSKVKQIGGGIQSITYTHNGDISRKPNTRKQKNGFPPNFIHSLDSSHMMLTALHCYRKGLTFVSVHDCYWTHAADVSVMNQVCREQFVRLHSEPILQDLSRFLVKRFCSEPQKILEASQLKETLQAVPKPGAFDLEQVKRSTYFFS

| Compound | Km ([1]; primer extension from the +3 position, n = 2) | increase in discrimination, QUAD vs WT (resistance level) ([1]; recombinant L-P enzymes) | inhibition of RSV RNP complex (in words) [2] | IC50 [2] | substrate and chain termination profile with recombinant RSV polymerase (in words) ([3]; Fig 5A) | discrimination relative to natural CTP, WT RSV polymerase ([3]; Km CTP analog / Km CTP) | Km ([3]; primer extension from the +3 position, read-out: Km, single nucleotide incorporation, WT RSV L-P) | inhibition of HCV polymerase (in words) ([4]; Fig 5B) | IC50 [4] | inhibition of HCV polymerase (in words) [4] | recognition as substrate by human mitochondrial RNA polymerase (in words) [5] | substrate and chain termination profile with recombinant RSV polymerase (in words) [3] |
| --- | --- | --- | --- | --- | --- | --- | --- | --- | --- | --- | --- | --- |
| 4'ClCH2-CTP | 198 ± 18 µM | 24 fold | dual RSV/HCV polymerase inhibitors | 0.1 to 10 µM | less efficiently recognized | 288±48 fold | 16 ± 2.7 µM | dual RSV/HCV polymerase inhibitors | 0.1 to 10 µM |  |  |  |
| [N-]=[N+]=N[C@]1(COP(=O)(O)OP(=O)(O)OP(=O)(O)O)O[C@@H](n2ccc(N)nc2=O)[C@H](F)[C@@H]1O [2'F-4'N3-CTP] |  |  | dual RSV/HCV polymerase inhibitors | 0.1 to 10 µM | both substrates and chain terminators |  |  | dual RSV/HCV polymerase inhibitors | 0.1 to 10 µM |  |  |  |
| Nc1ccn([C@@H]2O[C@H](COP(=O)(O)OP(=O)(O)OP(=O)(O)O)[C@@H](O)[C@H]2F)c(=O)n1 [2'F-CTP] |  |  |  |  |  |  |  |  |  | did not efficiently inhibit | recognized as a substrate |  |
| Nc1ccn([C@@H]2O[C@](CCl)(COP(=O)(O)OP(=O)(O)OP(=O)(O)O)[C@@H](O)C2(F)F)c(=O)n1 [2'diF-4'ClCH2-CTP] |  |  |  | > 10 µM |  |  |  |  | > 10 µM |  |  | almost completely inactive |
| [N-]=[N+]=NC1(COP(=O)(O)OP(=O)(O)OP(=O)(O)O)OC(n2ccc(N)nc2=O)C(F)(F)C1O (centres unmarked) [2'diF-4'N3-CTP] |  |  | dual RSV/HCV polymerase inhibitors | 0.1 to 10 µM |  |  |  | dual RSV/HCV polymerase inhibitors | 0.1 to 10 µM |  |  | both substrates and chain terminators |
| Nc1ccn([C@@H]2O[C@H](COP(=O)(O)OP(=O)(O)OP(=O)(O)O)[C@@H](O)C2(F)F)c(=O)n1 [2'diF-CTP, reference compound] |  |  | did not efficiently inhibit | > 10 µM |  |  |  | did not efficiently inhibit | 0.1 to 10 µM |  |  | substrates for RSV polymerase, but did not cause immediate chain termination |

— paper PMC4476725 (PLoS Pathogens, 2015)
